The test system of assay [1] is GST in the liver of Bonito. The arrangement: method as in Güller et al. 43. Conditions: ref Güller et al. 43; cited from earlier work.
For assay [2], the system named is C. tarichi Pallas liver GST. Kind of assay: In vitro inhibition effect of metals on GST enzyme activity. In kind it is biochemical, Chalcalburnus tarichi Pallas. As to conditions: for Inhibition type / Ki: GSH substrate, Lineweaver–Burk plots; for Ki: three metal concentrations, mean ± standard error of the mean; for IC50: purified liver GST, from Activity (%)–[metal ion] plots. The procedure:
C. tarichi Pallas fish were obtained from Van Lake basin. The liver samples of C. tarichi Pallas were immediately removed and preserved for experimental studies according to the cold chain principles. The livers were sliced into small pieces and successfully lysed by a homogenizer in 50 mM Tris/HCl buffer (pH 7.2) containing 1 mM DTT, 1 mM PMSF and 1 mM EDTA. Homogenate was centrifuged twice at 4 °C and 20,000 × g for 60 min. The supernatant was used in subsequent analyses. For GST purification, we followed the procedure described in our previous study.
(§1) GST activity was measured with the method in our previous study using CDNB as the model substrate.
IC50 was defined as the concentration of the compound causing 50% inhibition, and it was calculated based on Activity (%)–[metal ion] plots for each metal. The Ki values and inhibition types were found using Lineweaver–Burk plots. For the Ki study, we selected 3 inhibitor concentrations and made activity measurements relative to the control values, and then we calculated 1 / S and 1 / V values and plotted Ki plots. Analysis of the data and drawing of graphs were realized using GraphPad Prism ver. 8 for Mac (GraphPad Software, La Jolla California USA). […] Differences between data sets were considered statistically significant when the p-value was less than 0.05.

Assay [3] concerns C. tarichi Pallas liver GST. Description: Kinetic analysis (Km, Vmax, Lineweaver–Burk plot) of liver GST with GSH and CDNB as cosubstrates. Conditions: substrate of liver GST. In kind it is biochemical, Chalcalburnus tarichi Pallas. The protocol: as §1
Bradford procedure was used for protein quantity. The optimal pH and ionic strength were determined based on the activity of the pure enzyme described in a previous study. The effects of temperature on GST activity were made spectrophotometrically at temperatures ranging from 0 to 80 °C as described in a previous study. Stable pH ranges were 5.5–8.0 and 7.0–9.0. The enzyme solution was mixed with the buffers at the corresponding pH values. The activities were assayed at every 24 h for 4 days. Different concentrations of GSH and CDNB were used as substrates to determine the Vmax and Km values of the GST enzyme. Vmax and Km values were determined based on the Lineweaver–Burk plot.

Assay [4] concerns GST from Lake Van fish gills. More on the design: method as in PMID 25856719. Conditions: Lake Van fish gill GST; cited from earlier work.
Assay [5] has as its system GST from muscle tissue. More on the design: method as in Aksoy et al. 15. Conditions: ref Aksoy et al. 15; cited from earlier work.
The subject of assay [6] is GST from turkey livers. The arrangement: method as in PMID 22989768. As to conditions: turkey liver GST; cited from earlier work.

“And” between values parts separate entries of the source, which are not always exact repeats. Equal entries are not always repeated.

As usually defined, the Ki is the equilibrium dissociation constant of an inhibitor or competing ligand from its target. What is called IC50 is the concentration at which inhibition is half-maximal. With `[Cd+2]` [Cd^2+], the “Effect on GST enzyme activity” value in assay [1] was “showed inhibitory effects”. In addition, in assay [2], the Inhibition type entry is on record as “Competitive”; the affinity, expressed as Ki, was 117 ± 31 µM; 235 µM corresponded to half-maximal inhibition (IC50).
As to `[Co+2]` [Co^2+], in assay [2], the Inhibition type entry is “Competitive” and the IC50 was 446 µM.
In general, Km refers to the substrate concentration at which the rate is half of its maximum. As for `N[C@@H](CCC(=O)N[C@@H](CS)C(=O)NCC(=O)O)C(=O)O` [GSH], in assay [3], the Km is 60 µM; the Vmax was 0.562 EU/mL and 0.56 EU/mL.
For the compound `[Cu+2]` [Cu^2+], the “Effect on GST enzyme activity” value in assay [1] was “showed inhibitory effects”. For the same compound, in assay [2], the Inhibition type result was “Competitive”, the affinity corresponds to a Ki of 49 ± 9 µM and 163 µM corresponded to half-maximal inhibition (IC50).
With `[Fe+3]` [Fe^3+], the “Effect on GST enzyme activity” value in assay [1] is on record as “did not show any impact”.
For `[Cr+2]` [Cr^2+], the “Effect on GST enzyme activity” value in assay [1] is “did not show any impact”.
Take `O=[N+]([O-])c1ccc(Cl)c([N+](=O)[O-])c1` [CDNB]: in assay [3], the Km is 890 µM; the Vmax was 1.245 EU/mL and 1.25 EU/mL.
`[Ag+]` [Ag^+]: in assay [4], the “Inhibitory effect among the studied metal ions” value is recorded as “best inhibitory effect”. Also, in assay [1], the “Effect on GST enzyme activity” value was “showed inhibitory effects”. In addition, in assay [5], the “Inhibitory effect among all studied metal ions” value was “best inhibitor”. In addition, in assay [2], the Inhibition type result is reported as “Noncompetitive” and the IC50 came out at 0.21 µM. In assay [2] (compared with Cu2+, Cd2+, Co2+), the “Inhibitory effect among the studied metal ions” value is listed as “best inhibitory effect”. Besides, the “Inhibitory effect on enzyme activity” value in assay [6] was “potent inhibitory effect”.
Take `[Pb+2]` [Pb^2+]: the “Effect on GST enzyme activity” value in assay [1] is listed as “did not show any impact”.
In the case of `[Zn+2]` [Zn^2+], the “Effect on GST enzyme activity” value in assay [1] is “showed inhibitory effects”.

These data come from PMC10395789, “Impacts of some metal ions on glutathione s-transferase in the liver of Chalcalburnus tarichi: an endemic species of Lake Van” (Turkish Journal of Chemistry, 2022).
